Article PMC4306533, “Distinct Features of Cap Binding by eIF4E1b Proteins” (Journal of Molecular Biology, 2015)

Assays:
XeIF4E1a [1] = biological target: T1, XeIF4E1a (Xenopus laevis, UniProt P48597); assay: time-synchronized fluorescence titration of cap analogue binding; conditions: for Kas + glycerol XeIF4E1a / Kas − glycerol XeIF4E1a: equilibrium association constant; for Kas − glycerol XeIF4E1a: buffer without glycerol
T1 construct: made in house; host or cells: E. coli Rosetta2(DE3)
Excerpt: (§1) The time-synchronized fluorescence titration method, widely used to determine the affinity constants of cap–eIF4E complexes [[20,22–26]], measures the quenching of the intrinsic fluorescence of tryptophan residues due to cap binding (Fig. S2). Knowledge of the equilibrium association constant Kas enables the calculation of the free-energy changes involved in the interaction between eIF4E and ligand, according to the standard equation ΔG° = − RTlnKas.
(§2) For human eIF4E1a and eIF4E1b and also for Xenopus eIF4E1a and its mutated forms, measurements were carried out using 0.1 μM protein in 50 mM Hepes/KOH (pH 7.2), 134.5 mM KCl, 0.5 mM EDTA and 1 mM DTT. For Xenopus eIF4E1b(ΔN27), the concentration was 0.2 μM and glycerol was added to the buffer to 10% (v/v) final concentration. […] Fluorescence of measured samples was excited at 280 nm (2.5 nm bandwidth) and detected at 337 nm or 330 nm (4 nm bandwidth), thus reducing the signal originated from the free cap analogues. Measurements were carried out on a LS-55 spectrofluorometer (Perkin Elmer Co.) using freshly prepared proteins, and the fluorescence intensities were corrected for sample dilution and the inner filter effect.
(§3) Equilibrium association constants (Kas) were determined by fitting the theoretical dependence of fluorescence intensity on the total concentration of the cap analogue to the experimental data points, according to the equation described previously (see Ref. [22] and Fig. S2c).
(§4) The final Kas was calculated as a weighted average of 2–6 independent titrations with the weights taken as the reciprocal of the numerical standard deviation squared. Numerical, nonlinear least-squares regression analysis was performed using Origin 6.0 (Microcal Software Inc.). Obtained association constants were used to determine the Gibbs free energy according to the standard equation ΔG° = − RTlnKas.

heIF4E1b [2] = biological target: T2, heIF4E1b (Homo sapiens, UniProt A6NMX2); assay: as above; conditions: equilibrium association constant; buffer without glycerol
T2 construct: made in house; host or cells: E. coli Rosetta2(DE3)
T2 sequence (A6NMX2 1-242): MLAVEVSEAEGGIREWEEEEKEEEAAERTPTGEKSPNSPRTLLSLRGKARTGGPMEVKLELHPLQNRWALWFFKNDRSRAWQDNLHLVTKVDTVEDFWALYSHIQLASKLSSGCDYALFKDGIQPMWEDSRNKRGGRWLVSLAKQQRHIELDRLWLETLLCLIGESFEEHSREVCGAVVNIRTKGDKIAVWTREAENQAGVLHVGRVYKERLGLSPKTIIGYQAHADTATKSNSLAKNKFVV
Excerpt: as §1, §2, §3, §4

XeIF4E1bΔN27 = assay: as above; parameters: species or system Xenopus laevis; conditions: 10% glycerol; for Kas + glycerol XeIF4E1bΔN27: equilibrium association constant
Excerpt: as §1, §2, §3, §4

X4E1a1 (E101S) = biological target: T3, X4E1a1 (E101S) (Xenopus laevis, UniProt P48597, E101S); assay: fluorescence titration, XeIF4E1a mutant; format: binding; conditions: mutant (E101S) of XeIF4E1a
T3 construct: made in house; host or cells: E. coli Rosetta2(DE3)
Excerpt: (§5) We tested the effect on cap-binding activity of these positions in the fluorescence assay with six mutated recombinant versions of Xenopus eIF4E1a (Fig. S4). The amino acids were introduced in XeIF4E1a sequentially in the order: E101S/K102R/S195A/M82S/T206L/T207S (numbering of the XeIF4E1a sequence is shifted backward by 4 amino acids relative to XeIF4E1b). […] The biggest contribution to the weaker cap binding of XeIF4E1a, in each case about 20%, resulted from changing Glu101 to Ser and Thr206 to Leu coupled with Thr207 to Ser, with the remaining mutations having only minor effects. […] Glu101 is a solvent-accessible amino acid and is proximal to Trp98 in the S3-S4 loop. […] Attenuation of the cap-binding affinity of XeIF4E1a resulting from mutating Thr206 and Thr207 is consistent with our results mentioned above showing significant influence of C-terminal loop residues on binding phosphate and the second nucleotide.
(§6) For human eIF4E1a and eIF4E1b and also for Xenopus eIF4E1a and its mutated forms, measurements were carried out using 0.1 μM protein in 50 mM Hepes/KOH (pH 7.2), 134.5 mM KCl, 0.5 mM EDTA and 1 mM DTT. For Xenopus eIF4E1b(ΔN27), the concentration was 0.2 μM and glycerol was added to the buffer to 10% (v/v) final concentration. […] The gradually increasing concentration of cap analogue quenches protein fluorescence without shifting the spectrum maximum, while at high concentrations, the fluorescence signal of free cap analogue dominates over the fluorescence from other solution components including free eIF4E and eIF4E in complex with cap (Fig. S2a). Fluorescence of measured samples was excited at 280 nm (2.5 nm bandwidth) and detected at 337 nm or 330 nm (4 nm bandwidth), thus reducing the signal originated from the free cap analogues. Measurements were carried out on a LS-55 spectrofluorometer (Perkin Elmer Co.) using freshly prepared proteins, and the fluorescence intensities were corrected for sample dilution and the inner filter effect.
(§7) Equilibrium association constants (Kas) were determined by fitting the theoretical dependence of fluorescence intensity on the total concentration of the cap analogue to the experimental data points, according to the equation described previously (see Ref. [22] and Fig. S2c). […] Along with Kas and the concentration of the active protein [P0^act], other parameters such as fL and ∆f = fPact − fPL are also gained from the fit, where fL represents the fluorescence efficiency of free cap analogue and ∆f represents the difference between the fluorescence efficiencies of the apo-protein and the complex (Fig. S2c).
as §4

X4E1a1’ (K102R) = biological target: T4, X4E1a1’ (K102R) (Xenopus laevis, UniProt P48597, K102R); assay: fluorescence titration, XeIF4E1a mutant; format: binding; conditions: mutant (K102R) of XeIF4E1a
T4 construct: made in house; host or cells: E. coli Rosetta2(DE3)
Excerpt: as §5, §6, §7, §4

X4E1a2 (E101S/K102R) = biological target: T5, X4E1a2 (E101S/K102R) (Xenopus laevis, UniProt P48597, E101S/K102R); assay: fluorescence titration, XeIF4E1a mutant; format: binding; conditions: mutant (E101S/K102R) of XeIF4E1a
T5 construct: made in house; host or cells: E. coli Rosetta2(DE3)
Excerpt: as §5, §6, §7, §4

[3] = biological target: T6, X4E1a3 (E101S/K102R/S195A) (Xenopus laevis, UniProt P48597, E101S/K102R/S195A); assay: fluorescence titration, XeIF4E1a mutant; format: binding; conditions: mutant (E101S/K102R/S195A) of XeIF4E1a
T6 construct: made in house; host or cells: E. coli Rosetta2(DE3)
Excerpt: as §5, §6, §7, §4

[4] = biological target: T7, X4E1a4 (E101S/K102R/S195A/M82S) (Xenopus laevis, UniProt P48597, E101S/K102R/M82S/S195A); assay: fluorescence titration, XeIF4E1a mutant; format: binding; conditions: mutant (E101S/K102R/S195A/M82S) of XeIF4E1a
T7 construct: made in house; host or cells: E. coli Rosetta2(DE3)
Excerpt: as §5, §6, §7, §4

[5] = biological target: T8, X4E1a6 (E101S/K102R/S195A/M82S/T206L/T207S) (Xenopus laevis, UniProt P48597, E101S/K102R/M82S/S195A/T206L/T207S); assay: fluorescence titration, XeIF4E1a mutant; format: binding; conditions: for Kas X4E1a6: mutant (E101S/K102R/S195A/M82S/T206L/T207S) of XeIF4E1a
T8 construct: made in house; host or cells: E. coli Rosetta2(DE3)
Excerpt: as §5, §6, §7, §4

heIF4E1a = biological target: T9, heIF4E1a (Homo sapiens, UniProt P06730); assay: time-synchronized fluorescence titration of cap analogue binding; conditions: for Kas − glycerol heIF4E1a: equilibrium association constant, buffer without glycerol
T9 construct: made in house; host or cells: E. coli Rosetta2(DE3)
Excerpt: as §1, §2, §3, §4

heIF4E1b [6] = assay: as above; parameters: species or system human; conditions: without glycerol
Excerpt: as §1, §2, §3, §4

XeIF4E1a [7] = assay: as above; parameters: species or system Xenopus laevis; conditions: without glycerol
Excerpt: as §1, §2, §3, §4

T9 sequence (P06730 whole entry): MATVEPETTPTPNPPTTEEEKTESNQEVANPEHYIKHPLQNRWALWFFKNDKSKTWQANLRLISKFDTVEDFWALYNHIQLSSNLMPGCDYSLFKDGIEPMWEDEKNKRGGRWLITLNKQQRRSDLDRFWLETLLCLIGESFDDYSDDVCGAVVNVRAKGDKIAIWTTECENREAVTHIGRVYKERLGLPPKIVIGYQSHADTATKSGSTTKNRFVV
T1 sequence (P48597 whole entry): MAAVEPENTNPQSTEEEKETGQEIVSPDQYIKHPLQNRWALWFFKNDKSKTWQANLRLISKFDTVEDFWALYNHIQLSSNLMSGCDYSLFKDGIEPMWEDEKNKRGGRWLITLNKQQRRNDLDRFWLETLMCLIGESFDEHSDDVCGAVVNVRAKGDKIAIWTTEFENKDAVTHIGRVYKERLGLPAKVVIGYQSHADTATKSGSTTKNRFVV
T8 sequence (P48597 whole entry M82S/E101S/K102R/S195A/T206L/T207S): as the sequence (P48597 whole entry) above, with M82S, E101S, K102R, S195A, T206L, T207S counted along it
T4 sequence (P48597 whole entry K102R): as the sequence (P48597 whole entry) above, with K102R counted along it
T3 sequence (P48597 whole entry E101S): as the sequence (P48597 whole entry) above, with E101S counted along it
T7 sequence (P48597 whole entry M82S/E101S/K102R/S195A): as the sequence (P48597 whole entry) above, with M82S, E101S, K102R, S195A counted along it
T6 sequence (P48597 whole entry E101S/K102R/S195A): as the sequence (P48597 whole entry) above, with E101S, K102R, S195A counted along it
T5 sequence (P48597 whole entry E101S/K102R): as the sequence (P48597 whole entry) above, with E101S, K102R counted along it

| SMILES | Kas + glycerol XeIF4E1a (XeIF4E1a [1]; 10% glycerol) | Kas − glycerol XeIF4E1a (XeIF4E1a [1]) | Kas − glycerol heIF4E1b (heIF4E1b [2]) | Kas + glycerol XeIF4E1bΔN27 (XeIF4E1bΔN27) | Kas X4E1a1 (X4E1a1 (E101S)) | Kas X4E1a1’ (X4E1a1’ (K102R)) | Kas X4E1a2 (X4E1a2 (E101S/K102R)) | Kas X4E1a3 [3] | Kas X4E1a4 [4] | decrease of association constant compared to wild-type XeIF4E1a ([5]; all six residues replaced) | Kas X4E1a6 [5] | ΔΔG^o + glycerol XeIF4E1a (XeIF4E1a [1]; change relative to m^7Gp3G, 10% glycerol) | ΔΔG^o − glycerol heIF4E1a (heIF4E1a; change relative to m^7Gp3G, without glycerol) | Kas − glycerol heIF4E1a (heIF4E1a) | Ratio Kas (h4E1a) to Kas (h4E1b) (heIF4E1b [6]) | Ratio Kas (h4E1a) to Kas (X4E1a) (XeIF4E1a [7]) | Ratio Kas (X4E1a) to Kas (X4E1bΔN27) (XeIF4E1bΔN27) |
| --- | --- | --- | --- | --- | --- | --- | --- | --- | --- | --- | --- | --- | --- | --- | --- | --- | --- |
| Cn1c[n+]([C@@H]2O[C@H](COP(=O)([O-])OP(=O)(O)OP(=O)(O)O)[C@@H](O)[C@H]2O)c2nc(N)[nH]c(=O)c21 [m^7GTP] | 23.34 ± 0.88 μM^− 1 | 42.8 ± 2.0 μM^− 1 | 22.0 ± 1.4 μM^− 1 | 7.80 ± 0.41 μM^− 1 | 33.58 ± 0.66 µM⁻¹ | 34.3 ± 1.7 µM⁻¹ | 32.76 ± 0.51 µM⁻¹ | 28.1 ± 1.5 µM⁻¹ | 26.7 ± 2.2 µM⁻¹ | 50% | 19.8 ± 0.4 µM⁻¹ | – | – | – | – | – | – |
| CO[C@@H]1[C@H](O)[C@@H](COP(=O)(O)OP(=O)(O)OP(=O)(O)OC[C@H]2O[C@@H](n3c[n+](C)c4c(=O)[nH]c(N)nc43)[C@H](O)[C@@H]2O)O[C@H]1n1cnc2c(=O)[nH]c(N)nc21 [m^7Gpppm^2′-OG] | 2.189 ± 0.026 μM^− 1 | – | 3.568 ± 0.071 μM^− 1 | – | – | – | – | – | – | – | – | 0.026 ± 0.018 kcal/mol | 0.128 ± 0.041 kcal/mol | 4.77 ± 0.13 μM^− 1 | 1.34 | – | – |
| Cn1c[n+]([C@@H]2O[C@H](COP(=O)(O)OP(=O)(O)OP(=O)(O)OP(=O)(O)O)[C@@H](O)[C@H]2O)c2nc(N)[nH]c(=O)c21 [m^7Gp4] | 151.1 ± 8.6 μM^− 1 | 268 ± 10 μM^− 1 | 89.6 ± 4.0 μM^− 1 | 43.0 ± 2.0 μM^− 1 | 218 ± 39 µM⁻¹ | 232.5 ± 8.3 µM⁻¹ | 202.5 ± 6.7 µM⁻¹ | 170 ± 24 µM⁻¹ | 206 ± 12 µM⁻¹ | – | 143 ± 8 µM⁻¹ | – | – | 419 ± 23 μM^− 1 | 4.68 | 1.57 | 3.51 |
